Molecular target: T1, Vitamin D3 receptor (Homo sapiens, UniProt P11473)
T1 sequence (P11473 whole entry): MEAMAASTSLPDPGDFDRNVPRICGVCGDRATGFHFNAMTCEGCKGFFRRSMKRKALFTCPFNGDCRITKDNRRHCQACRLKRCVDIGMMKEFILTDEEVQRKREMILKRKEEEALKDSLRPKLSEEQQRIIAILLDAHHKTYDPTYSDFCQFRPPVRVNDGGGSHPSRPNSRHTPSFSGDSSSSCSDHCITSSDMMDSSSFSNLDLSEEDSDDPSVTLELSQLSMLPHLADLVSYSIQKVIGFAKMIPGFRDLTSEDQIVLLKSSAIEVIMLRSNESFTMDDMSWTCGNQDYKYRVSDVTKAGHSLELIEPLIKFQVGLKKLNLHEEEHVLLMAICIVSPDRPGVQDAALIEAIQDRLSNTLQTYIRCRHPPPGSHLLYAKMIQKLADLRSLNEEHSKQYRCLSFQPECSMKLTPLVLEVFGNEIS
Description: Displacement of [3H]-1-alpha,25-dihydroxyvitamin D3 from N-terminal GST-tagged human recombinant VDR LBD expressed in Escherichia coli Rosetta2 (DE3) after 16 hrs

Going from C=C1[C@H](O)CC(=C/C=C2\CCC[C@]3(C)[C@@H]([C@H](C)[C@@H](CCO)CCCC)CC[C@@H]23)C[C@H]1O to C=C1[C@H](O)CC(=C/C=C2\CCC[C@]3(C)[C@@H]([C@H](C)[C@H](CCCC)CCCO)CC[C@@H]23)C[C@H]1O, the IC50 rises from 0.26 nM to 0.89 nM (3.4-fold). The first is the more potent here.

Going from C=C1[C@H](O)CC(=C/C=C2\CCC[C@]3(C)[C@@H]([C@H](C)[C@H](CC)CCO)CC[C@@H]23)C[C@H]1O to C=C1[C@H](O)CC(=C/C=C2\CCC[C@]3(C)[C@@H]([C@H](C)[C@H](CC)CCCO)CC[C@@H]23)C[C@H]1O, the IC50 rises from 2.87 nM to 7.16 nM (2.5-fold). The first is the more potent here.

Going from C=C1[C@H](O)CC(=C/C=C2\CCC[C@]3(C)[C@@H]([C@H](C)[C@H](CCCC)CC(C)(C)O)CC[C@@H]23)C[C@H]1O to C=C1[C@H](O)CC(=C/C=C2\CCC[C@]3(C)[C@@H]([C@H](C)[C@H](CCCC)CCC(C)(C)O)CC[C@@H]23)C[C@H]1O, the IC50 rises from 0.12 nM to 0.29 nM (2.4-fold). The first is the more potent here.

First: C=C1[C@H](O)CC(=C/C=C2\CCC[C@]3(C)[C@@H]([C@H](C)[C@H](CC)CC(C)(C)O)CC[C@@H]23)C[C@H]1O
Second: C=C1[C@H](O)CC(=C/C=C2\CCC[C@]3(C)[C@@H]([C@H](C)[C@H](CC)CCC(C)(C)O)CC[C@@H]23)C[C@H]1O
The IC50 of the first is 1.5-fold lower: 1.55 nM for the first, 2.39 nM for the second. The first is the more potent here.

C=C1[C@H](O)CC(=C/C=C2\CCC[C@]3(C)[C@@H]([C@H](C)[C@H](CCCC)CC(O)(CC)CC)CC[C@@H]23)C[C@H]1O and C=C1[C@H](O)CC(=C/C=C2\CCC[C@]3(C)[C@@H]([C@H](C)[C@H](CC)CC(O)(CC)CC)CC[C@@H]23)C[C@H]1O are within 1.5-fold of each other in IC50: 1.79 nM for the first, 1.55 nM for the second.

— ChEMBL document CHEMBL3259623, “A mixed population of antagonist and agonist binding conformers in a single crystal explains partial agonism against vitamin D receptor: active vitamin D analogues with 22R-alkyl group” (J Med Chem, 2014)
